Laboratory results from patent US11072596B2, “Poly(ADP-ribose) polymerase inhibitor, preparation method and use” (SELECTION BIOSCIENCE LLC, priority 2017, dated 2021).

How the values were obtained:
MDA-MB-436 cells = assay: Pharmacodynamic study on mouse MDA-MB-436 model; assay type: in vivo, BALB/c nude mice; conditions: for T/C / TGI / Tumor volume (day 39) / Tumor volume (day 0): MDA-MB-436 in nude mice; for T/C / TGI / Tumor volume (day 39) / rate of test animals in which the tumor completely disappeared: 50 mg/kg PO x 18 days; for T/C / TGI / Tumor volume (day 39): day 39; for Tumor volume (day 0): day 0, before dosing; for rate of test animals in which the tumor completely disappeared: observed until the 39th day; for inhibitory effect on the tumor growth, in words: 50 mg/kg, continuous PO administration for 18 days
Protocol: BALB/c nude mice, aged 6-8 weeks old, weighing 18-22 g, female, provided by Shanghai Lab Animal Research Center (Shanghai Xipuer-Beikai) with the animal certificate no: 20130016001914.
Human breast cancer MDA-MB-436 cells (ATCC, Manacas, Va., Article number (Art. No.): ATCC-HTB-130) were cultured in vitro in monolayer under the conditions of RPMI1640 medium with 10% fetal bovine serum and 37° C. 5% CO2 incubator. The passage was routinely digested with trypsin-EDTA twice a week. When the cell saturation was up to 80%-90% and reached the requirement, the cells were collected, counted and inoculated. 0.2 mL (1×10^7) MDA-MB-436 cells (added with matrix gel, volume ratio 1:1) were subcutaneously inoculated into the right back of each mouse, and mice were randomly grouped and dosed when the average tumor volume reached 157 mm^3.
2.5 g of methylcellulose was slowly added into 80 mL of deionized water in a suitable container under stirring, stirred until uniform, 10 mL of Tween 80 was added to the solution, stirred until uniform, continued to add deionized water to 500 mL, and stirred until uniform to obtain a vehicle solution. Then an appropriate amount of p-toluenesulfonate of example 23 was weighed, and an appropriate amount of the above vehicle solution was added and vortexed until uniform.
The subcutaneous tumor volumes of nude mice were measured 2-3 times a week, and the mice were weighed, and the data were recorded.
Experimental evaluation index: tumor growth inhibition rate TGI (%) or relative tumor proliferation rate T/C (%) was used for evaluation, wherein T was the experimental group, and C was the control group.
Calculation of relative tumor proliferation rate: If T>T0, T/C (%)=(T−T0)/(C−C0)×100%, if T<T0, T/C (%)=(T−T0)/T0×100%, wherein T and C were tumor volumes at the end of the experiment; T0 and C0 were tumor volumes at the beginning of the experiment.

[1] = target: hERG potassium ion channel (Homo sapiens, UniProt Q12809); assay: hERG potassium ion channel inhibitory activity (Qpatch, CHO-hERG cells); conditions: for inhibition at 2.5 min, 40 µM: human
Protocol: CHO-hERG cells were cultured in a 175 cm^2 flask, and when the cell density was increased to 60-80%, the medium was removed and washed with 7 mL of PBS (Phosphate Buffered Saline phosphate buffer), and then digested with 3 mL of Detachin.
The single-cell high impedance sealing and the whole-cell mode formation process were all automatically completed by the Qpatch instrument. After obtaining the whole-cell recording mode, the cells were clamped at −80 mV (millivolt). Before giving a 5-second+40 mV depolarization stimulus, a 50 ms-50 mV pre-voltage was first given, repolarized to −50 mV for 5 seconds, and then returned to −80 mV. This voltage stimulation was applied every 15 seconds. After recording for 2 minutes, extracellular fluid was given for 5 minutes, and then the administration process was started. The compound concentration started from the lowest test concentration, and each test concentration was given for 2.5 minutes. […] At least 3 cells were tested at each concentration (n≥3).
The 20 mM compound mother solution was diluted with extracellular fluid, and 5 μL of 20 mM compound mother solution was added to 2495 μL of extracellular solution, diluted 500-fold to 40 μM, and then sequentially performed 3-fold continuous dilution in an extracellular fluid containing 0.2% DMSO to obtain the final concentration to be tested.
The experimental data were analyzed by XLFit software.

[2] = Liver microsomal stability in vitro, human; assay type: in vitro ADME; conditions: for half-life at 1 μM: pH 7.4, human liver microsomes 0.5 mg protein/mL, 1 μM test compound, 37° C., read-out: Human T1/2
Protocol: Evaluation of in vitro liver microsomal stability of the compound of the present disclosure was tested by the following method:
Buffer: 100 mM potassium phosphate buffer, pH 7.4; […] MgCl2.
Liver microsomes: human liver microsomes, Corning Cat No. 452117; Rat liver microsomes, Xenotech Cat No. R1000; Mouse liver microsomes, Xenotech Cat No. M1000; Dog liver microsomes, Xenotech Cat No. D1000; Liver microsomes of cynomolgus monkey, Corning Cat No. 452413, the final concentration was 0.5 mg protein/mL.
1. Intermediate solution: 5 μL of compound or control in stock solution (10 mM) was diluted with 495 μL of methanol (concentration: 100 μM, 99% MeOH).
2. Operating solution: the intermediate solution was diluted […] with 450 μL 100 mM potassium phosphate buffer (concentration: 10 μM, 9.9% MeOH).
1. 10 μL of compound or control solution per well was added to all plates (T0, T5, T10, T20, T30, T60, NCF60) except matrix blank.
2. Microsome solution was distributed to 96-well plates according to platemap for standby, 680 μL per well, and the mixture of microsome solution and the compound was incubated at 37° C. for about 10 minutes.
4. After preheating, NADPH regeneration system was distributed to 96-well plate, 90 μL per well, for standby according to plate map, which was added to each plate to start the reaction, 10 μL per well. The final concentration of each component in the incubation medium includes: 0.5 mg protein/mL microsome, 1 μM test compound, […], 0.99% methanol and 0.01% DMSO.
6. The above-prepared stop solution (4° C. cooling) was added to stop the reaction, 300 μL per well.
9. During centrifugation, eight new 96-well plates were loaded with 300 μL of HPLC water, and then 100 μL of supernatant was transferred for mixing, followed by LC/MS/MS detection.
10. Data analysis: The peak area of the corresponding compound and internal standard was detected by LC-MS/MS, and the T1/2 of the compound was calculated by the following formula: […]

in vivo = assay: in vivo
Protocol: SD rats were used as test animals, and the drug concentrations in plasma at different times after intravenous and intragastric administration of the compounds of examples were determined by LC/MS/MS method(s) to study the pharmacokinetics of the compound in the present disclosure in rats
Healthy adult male SD (Sprague-Dawley) rats, 3 animals per test compound, 6-9 weeks old, weighing 250±50 g, were purchased from Shanghai SLAC Laboratory Animal Co., Ltd.
The appropriate amount of sample was weighed out, 0.5% Methocel/2% tween 80 was added to the final volume, and 2 mg/mL was prepared for intragastric administration.
Each 3 male SD rats of each test compound were taken by intragastric administration at a dosage of 10 mg/kg after fasting overnight.
Blood samples of each animal were collected at different time points 0.083-24 h from jugular vein puncture after administration, K2-EDTA anticoagulation, centrifugation, and blood plasma were collected, frozen at −70° C. until LC/MS/MS analysis.

[3] = male, Sprague-Dawley, rat, in vivo, po, 10 mg/kg
[4] = SD rats, table head: Dose PO (10 mg/kg)
[5] = male, Sprague-Dawley, rat, plasma, po, 10 mg/kg, SD rats, PO 10 mg/kg

Chain of hERG potassium ion channel (Q12809 whole entry): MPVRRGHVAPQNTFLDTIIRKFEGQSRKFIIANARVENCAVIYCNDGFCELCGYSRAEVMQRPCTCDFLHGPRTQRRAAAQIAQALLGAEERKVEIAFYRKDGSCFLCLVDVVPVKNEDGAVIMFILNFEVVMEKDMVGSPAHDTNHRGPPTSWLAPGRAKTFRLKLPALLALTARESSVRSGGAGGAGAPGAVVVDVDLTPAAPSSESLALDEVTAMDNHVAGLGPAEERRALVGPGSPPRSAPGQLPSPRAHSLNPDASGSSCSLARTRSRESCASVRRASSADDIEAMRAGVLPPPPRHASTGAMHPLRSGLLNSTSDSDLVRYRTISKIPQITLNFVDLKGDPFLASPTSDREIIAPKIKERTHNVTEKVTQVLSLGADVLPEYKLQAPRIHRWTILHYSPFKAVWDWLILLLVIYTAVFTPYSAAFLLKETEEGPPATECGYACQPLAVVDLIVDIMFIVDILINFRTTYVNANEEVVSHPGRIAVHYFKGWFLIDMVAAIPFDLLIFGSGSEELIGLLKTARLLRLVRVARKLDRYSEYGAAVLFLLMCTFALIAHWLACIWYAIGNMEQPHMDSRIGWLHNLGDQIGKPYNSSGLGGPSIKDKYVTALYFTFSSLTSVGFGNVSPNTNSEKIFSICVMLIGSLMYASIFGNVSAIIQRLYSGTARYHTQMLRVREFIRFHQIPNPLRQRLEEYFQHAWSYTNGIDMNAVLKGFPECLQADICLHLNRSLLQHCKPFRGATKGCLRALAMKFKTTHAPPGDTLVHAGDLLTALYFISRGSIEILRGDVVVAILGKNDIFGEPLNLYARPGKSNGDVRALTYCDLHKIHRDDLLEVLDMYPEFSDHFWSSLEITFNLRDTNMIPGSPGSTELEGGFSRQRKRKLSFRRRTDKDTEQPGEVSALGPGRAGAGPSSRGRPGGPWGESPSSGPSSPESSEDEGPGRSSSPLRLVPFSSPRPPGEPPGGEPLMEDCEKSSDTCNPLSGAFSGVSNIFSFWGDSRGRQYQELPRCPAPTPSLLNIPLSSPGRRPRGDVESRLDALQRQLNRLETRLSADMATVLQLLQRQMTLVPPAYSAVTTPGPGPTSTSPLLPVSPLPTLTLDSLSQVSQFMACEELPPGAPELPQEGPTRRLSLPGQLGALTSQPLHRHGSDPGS

SMILES	T/C (MDA-MB-436 cells)	TGI (MDA-MB-436 cells)	Tumor volume (day 39) (MDA-MB-436 cells)	Tumor volume (day 0) (MDA-MB-436 cells)	rate of test animals in which the tumor completely disappeared (MDA-MB-436 cells; nude mouse MDA-MB-436 model)	inhibitory effect on the tumor growth, in words (MDA-MB-436 cells; nude mouse MDA-MB-436 model)	IC50 [1]	half-life at 1 μM [2]	further results
NC(=O)c1cccc2cn(-c3ccc([C@]4(F)CCCNC4)cc3)nc12 (single isomer, unassigned) [Example 23, (R or S)-2-(4-(3-fluoropiperidin-3-yl)phenyl)-2H-indazole-7-carboxamide]	−68%	168%	49 mm^3	157 mm^3	50%	very strong inhibitory effect	> 40 µM	> 2.42 h	anti-tumor activity compared with positive control Niraparib, in words (MDA-MB-436 cells; nude mouse MDA-MB-436 model, 50 mg/kg PO for 18 days): stronger; inhibition at 2.5 min, 40 µM [1]: 29.8%; metabolic stability in human liver microsomes, in words ([2]; human liver microsomes): excellent metabolic stability; F (in vivo; [3]): 49.7%; T1/2 (in vivo; [3]): 16.0 h; AUC (in vivo; [3]): 3060 ng·h/mL; MRT (in vivo; [3]): 7.12 h
NC(=O)c1cccc2cn(-c3ccc([C@@H]4CCCNC4)cc3)nc12 [Niraparib, reference compound]	1.5%	98.5%	187 mm^3	157 mm^3	zero	very strong inhibitory effect	39.6 µM	> 2.42 h	inhibition at 2.5 min, 40 µM ([1]; CHO cells that express hERG (CHO-hERG)): 50.4%; F (in vivo; SD rats, PO 10 mg/kg): 65.0%; CL (in vivo; [4]): 28.7 mL/min/kg; Vdss (in vivo; [4]): 8.18 L/kg; AUC (in vivo; [5]): 4540 ng·h/mL; Cmax (in vivo; male, Sprague-Dawley, rat, plasma, po, 10 mg/kg, Cmax, SD rats, PO 10 mg/kg): 509 ng/mL; MRT (in vivo; [5]): 8.59 h; half-life (in vivo; male, Sprague-Dawley, rat, plasma, po, 10 mg/kg, T1/2, SD rats, PO 10 mg/kg): 3.4 h
